This is an account of results in patent US20220281841A1, “ETHYNYLHETEROCYCLES AS RHO-ASSOCIATED COILED-COIL KINASE (ROCK) INHIBITORS” (Angion Biomedica Corp., priority 2019, published 2022).

In one assay the target is T1, ROCK1 (Homo sapiens, UniProt Q13464).
T1 construct: purchased DiscoverX (KINOMEscan KdELECT service); host or cells: E. coli BL21-derived (T7 phage) or HEK-293
Nature of the assay: ROCK1 kinase binding affinity, DiscoverX KINOMEscan KdELECT. To be noted: equilibrium dissociation constant, 11-point 3-fold dilution series. As for the experimental part:
(§1) 1. ROCK1 and ROCK2 kinase assays: The ROCK1 and ROCK2 kinase binding affinities of compounds in this invention were determined by DiscoverX's KINOMEscan™ KdELECT technology (https://www.discoverx.com/kinomescan-elect-kinase-screening-and-profiling-services): Kinase-tagged T7 phage strains were prepared in an E. coli host derived from the BL21 strain. E. coli were grown to log-phase and infected with T7 phage and incubated with shaking at 32° C. until lysis. The lysates were centrifuged and filtered to remove cell debris. The remaining kinases were produced in HEK-293 cells and subsequently tagged with DNA for qPCR detection. Streptavidin-coated magnetic beads were treated with biotinylated small molecule ligands for 30 minutes at room temperature to generate affinity resins for kinase assays. The liganded beads were blocked with excess biotin and washed with blocking buffer (SeaBlock (Pierce), 1% BSA, 0.05% Tween 20, 1 mM DTT) to remove unbound ligand and to reduce nonspecific binding. […] Test compounds were prepared as 111X stocks in 100% DMSO. Kds were determined using an 11-point 3-fold compound dilution series with three DMSO control points. […] The compounds were then diluted directly into the assays such that the final concentration of DMSO was 0.9%. All reactions performed in polypropylene 384-well plate. Each was a final volume of 0.02 ml. […] The kinase concentration in the eluates was measured by qPCR.

The target in a further assay is T2, ROCK2 (Homo sapiens, UniProt O75116).
T2 construct: purchased DiscoverX (KINOMEscan KdELECT service); host or cells: E. coli BL21-derived (T7 phage) or HEK-293
The assay is described as follows: ROCK2 kinase binding affinity, DiscoverX KINOMEscan KdELECT. To be noted: for ROCK 2 Selectivity: ROCK2 over ROCK1, from Kd values, N/C = not calculated; for Kd: equilibrium dissociation constant, 11-point 3-fold dilution series, read-out: Kd (μM) ROCK2. As for the experimental part: as §1

Where a name gives a salt, the structure may show the parent alone.

T1 sequence (Q13464 whole entry): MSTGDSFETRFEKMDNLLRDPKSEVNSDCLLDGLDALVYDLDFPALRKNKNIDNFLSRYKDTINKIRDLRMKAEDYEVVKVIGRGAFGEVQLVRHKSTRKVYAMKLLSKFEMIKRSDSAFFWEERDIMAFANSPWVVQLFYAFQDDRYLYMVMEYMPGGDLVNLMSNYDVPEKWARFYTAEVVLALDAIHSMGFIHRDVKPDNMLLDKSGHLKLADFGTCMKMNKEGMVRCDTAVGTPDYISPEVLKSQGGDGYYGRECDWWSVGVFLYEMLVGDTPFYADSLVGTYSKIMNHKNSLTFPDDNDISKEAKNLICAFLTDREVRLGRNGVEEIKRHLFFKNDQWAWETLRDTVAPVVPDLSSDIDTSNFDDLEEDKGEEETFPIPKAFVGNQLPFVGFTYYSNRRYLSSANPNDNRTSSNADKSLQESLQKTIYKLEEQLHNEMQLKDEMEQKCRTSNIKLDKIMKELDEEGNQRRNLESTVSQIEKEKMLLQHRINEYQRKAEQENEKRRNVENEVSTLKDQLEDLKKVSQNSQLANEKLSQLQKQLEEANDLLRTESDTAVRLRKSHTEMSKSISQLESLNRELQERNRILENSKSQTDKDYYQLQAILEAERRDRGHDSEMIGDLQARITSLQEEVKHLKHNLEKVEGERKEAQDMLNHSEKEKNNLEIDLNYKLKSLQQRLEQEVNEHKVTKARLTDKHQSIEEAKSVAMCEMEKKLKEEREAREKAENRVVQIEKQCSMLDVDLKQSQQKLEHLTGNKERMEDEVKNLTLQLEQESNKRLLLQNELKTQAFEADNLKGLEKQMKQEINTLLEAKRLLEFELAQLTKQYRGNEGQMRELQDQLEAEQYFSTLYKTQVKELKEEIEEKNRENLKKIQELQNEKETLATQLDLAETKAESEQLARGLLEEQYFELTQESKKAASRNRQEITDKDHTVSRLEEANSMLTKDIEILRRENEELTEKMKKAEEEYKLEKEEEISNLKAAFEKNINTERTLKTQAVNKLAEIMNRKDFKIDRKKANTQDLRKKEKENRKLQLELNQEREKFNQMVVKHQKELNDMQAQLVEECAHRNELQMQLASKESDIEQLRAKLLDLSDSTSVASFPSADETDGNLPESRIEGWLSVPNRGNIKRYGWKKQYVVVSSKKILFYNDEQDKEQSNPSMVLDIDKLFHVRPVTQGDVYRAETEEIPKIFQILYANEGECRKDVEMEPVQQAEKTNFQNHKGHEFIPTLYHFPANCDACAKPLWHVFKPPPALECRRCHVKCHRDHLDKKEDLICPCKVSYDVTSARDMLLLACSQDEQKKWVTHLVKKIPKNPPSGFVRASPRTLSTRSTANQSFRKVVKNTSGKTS
T2 sequence (O75116 whole entry): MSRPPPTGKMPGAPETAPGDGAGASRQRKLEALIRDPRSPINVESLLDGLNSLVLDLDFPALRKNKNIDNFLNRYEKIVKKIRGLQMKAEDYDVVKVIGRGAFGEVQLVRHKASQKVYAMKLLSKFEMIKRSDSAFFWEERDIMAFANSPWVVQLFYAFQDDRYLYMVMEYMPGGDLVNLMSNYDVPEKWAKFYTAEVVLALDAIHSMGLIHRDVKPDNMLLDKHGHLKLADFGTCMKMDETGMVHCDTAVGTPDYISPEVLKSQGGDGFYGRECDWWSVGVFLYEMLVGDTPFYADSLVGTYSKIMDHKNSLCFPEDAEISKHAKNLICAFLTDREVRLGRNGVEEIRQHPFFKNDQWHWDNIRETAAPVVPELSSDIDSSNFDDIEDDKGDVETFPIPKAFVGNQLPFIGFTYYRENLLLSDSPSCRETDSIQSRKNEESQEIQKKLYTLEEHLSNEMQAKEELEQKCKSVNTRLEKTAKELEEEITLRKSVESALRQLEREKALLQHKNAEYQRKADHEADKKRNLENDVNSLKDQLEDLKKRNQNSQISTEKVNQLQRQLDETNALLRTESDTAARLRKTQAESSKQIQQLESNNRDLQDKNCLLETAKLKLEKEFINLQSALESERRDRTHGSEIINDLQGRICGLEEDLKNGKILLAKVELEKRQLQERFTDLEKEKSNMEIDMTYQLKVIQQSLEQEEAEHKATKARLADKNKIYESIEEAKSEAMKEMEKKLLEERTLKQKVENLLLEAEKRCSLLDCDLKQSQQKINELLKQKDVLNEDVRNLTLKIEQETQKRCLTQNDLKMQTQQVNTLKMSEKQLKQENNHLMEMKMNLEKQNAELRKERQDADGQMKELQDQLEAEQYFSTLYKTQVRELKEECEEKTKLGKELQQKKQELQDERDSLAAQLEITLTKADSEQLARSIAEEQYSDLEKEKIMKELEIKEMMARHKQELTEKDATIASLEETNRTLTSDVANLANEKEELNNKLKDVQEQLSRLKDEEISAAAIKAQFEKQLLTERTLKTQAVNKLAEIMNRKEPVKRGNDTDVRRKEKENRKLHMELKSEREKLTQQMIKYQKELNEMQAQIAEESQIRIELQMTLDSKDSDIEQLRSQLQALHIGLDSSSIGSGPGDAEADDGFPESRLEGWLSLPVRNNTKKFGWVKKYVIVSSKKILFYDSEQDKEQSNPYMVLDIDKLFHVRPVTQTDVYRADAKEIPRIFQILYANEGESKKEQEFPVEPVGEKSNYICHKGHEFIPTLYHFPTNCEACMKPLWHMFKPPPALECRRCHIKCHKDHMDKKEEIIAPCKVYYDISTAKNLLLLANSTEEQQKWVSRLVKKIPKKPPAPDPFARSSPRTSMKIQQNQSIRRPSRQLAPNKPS

As for `CN1CCN(c2ccc3c(c2)CN(c2nccc(-c4cccc(C#Cc5ccc6[nH]ncc6c5)n4)n2)C3)CC1` [Ex. 23, 5-((6-(2-(5-(4-Methylpiperazin-1-yl)isoindolin-2-yl)pyrimidin-4-yl)pyridin-2-yl)ethynyl)-1H-indazole], the Kd (commonly the equilibrium constant for the complex coming apart) on ROCK1 was greater than 30 µM. Also, on ROCK2, the “ROCK 2 Selectivity” value is recorded as greater than 45 and the Kd is 0.66 µM.

For `COc1ccc2c(c1)CN(c1nccc(-c3cc(F)cc(C#Cc4ccc5[nH]ncc5c4)c3)n1)C2` [Ex. 24, 5-((3-Fluoro-5-(2-(5-methoxyisoindolin-2-yl)pyrimidin-4-yl)phenyl)ethynyl)-1H-indazole], the Kd on ROCK1 and at ROCK2 was greater than 30 µM each time.

For `Fc1cc(C#Cc2ccc3[nH]ncc3c2)cc(-c2ccnc(N3Cc4ccc(F)cc4C3)n2)c1` [Ex. 25, 5-((3-Fluoro-5-(2-(5-fluoroisoindolin-2-yl)pyrimidin-4-yl)phenyl)ethynyl)-1H-indazole], the Kd at ROCK1 and at ROCK2 was greater than 30 µM in each case.

The compound `Fc1cc(C#Cc2ccc3[nH]ncc3c2)cc(-c2ccnc(N3Cc4ccc(Cl)cc4C3)n2)c1` [Ex. 26, 5-((3-(2-(5-Chloroisoindolin-2-yl)pyrimidin-4-yl)-5-fluorophenyl)ethynyl)-1H-indazole] came in with a Kd at ROCK1 greater than 30 µM. For the same compound, on ROCK2, the “ROCK 2 Selectivity” value was greater than 6.67 and the Kd amounted to 4.5 µM.

With `Fc1cc(C#Cc2ccc3[nH]ncc3c2)cc(-c2ccnc(N3Cc4ccc(Br)cc4C3)n2)c1` [Ex. 27, 5-((3-(2-(5-Bromoisoindolin-2-yl)pyrimidin-4-yl)-5-fluorophenyl)ethynyl)-1H-indazole], the Kd on ROCK1 and on ROCK2 was greater than 30 µM throughout.

On to `CN(C)CCOc1ccc2c(c1)CN(c1nccc(-c3cc(F)cc(C#Cc4ccc5[nH]ncc5c4)c3)n1)C2` [Ex. 28, 2-((2-(4-(3-((1H-Indazol-5-yl)ethynyl)-5-fluorophenyl)pyrimidin-2-yl)isoindolin-5-yl)oxy)-N,N-dimethylethanamine], for which the Kd on ROCK1 and at ROCK2 was greater than 30 µM in each case.

As to `CN1CCN(c2ccc3c(c2)CN(c2nccc(-c4cc(F)cc(C#Cc5ccc6[nH]ncc6c5)c4)n2)C3)CC1` [Ex. 29, 5-((3-Fluoro-5-(2-(5-(4-methylpiperazin-1-yl)isoindolin-2-yl)pyrimidin-4-yl)phenyl)ethynyl)-1H-indazole], the Kd at ROCK1 and on ROCK2 was greater than 30 µM in each case.

Turning to `Brc1ccc2c(c1)CN(c1nccc(-c3nccc(C#Cc4ccc5[nH]ncc5c4)n3)n1)C2` [Ex. 30, 5-((2′-(5-Bromoisoindolin-2-yl)-[2,4′-bipyrimidin]-4-yl)ethynyl)-1H-indazole], the Kd at ROCK1 was 0.77 µM; at ROCK2, 0.0058 µM. The “ROCK 2 Selectivity” value on ROCK2 was 132.8.

Turning to `Fc1ccc2c(c1)CN(c1nccc(-c3nccc(C#Cc4ccc5[nH]nc(F)c5c4)n3)n1)C2` [Ex. 31, 3-Fluoro-5-((2′-(5-fluoroisoindolin-2-yl)-[2,4′-bipyrimidin]-4-yl)ethynyl)-1H-indazole], at ROCK1, the Kd was greater than 30 µM. At ROCK2, the “ROCK 2 Selectivity” value is greater than 411 and the Kd came to 0.073 µM.

Compound `Fc1ccc2c(c1)CN(c1nccc(-c3nccc(C#Cc4cnc5[nH]ncc5c4)n3)n1)C2` [Ex. 32, 5-((2′-(5-Fluoroisoindolin-2-yl)-[2,4′-bipyrimidin]-4-yl)ethynyl)-1H-pyrazolo[3,4-b]pyridine] had a Kd at ROCK1 greater than 30 µM. Besides, at ROCK2, the “ROCK 2 Selectivity” value is listed as greater than 103 and the Kd was 0.29 µM.

`COc1ccc2c(c1)CN(c1nccc(-c3nccc(C#Cc4cnc5[nH]ncc5c4)n3)n1)C2` [Ex. 33, 5-((2′-(5-Methoxyisoindolin-2-yl)-[2,4′-bipyrimidin]-4-yl)ethynyl)-1H-pyrazolo[3,4-b]pyridine] showed a Kd at ROCK1 greater than 30 µM. Besides, on ROCK2, the “ROCK 2 Selectivity” value was greater than 44.1 and the Kd was found to be 0.68 µM.

As to `Fc1ccc2c(c1)CN(c1ccnc(-c3ccnc(C#Cc4ccc5[nH]ncc5c4)n3)n1)C2` [Ex. 34, 5-((4-(5-Fluoroisoindolin-2-yl)-[2,4′-bipyrimidin]-2′-yl)ethynyl)-1H-indazole], the values for the Kd at ROCK1 and on ROCK2 were 0.089 µM and 0.031 µM, respectively. Moreover, the “ROCK 2 Selectivity” value at ROCK2 is recorded as 2.87.

At ROCK1, `C(#Cc1ccnc(-c2ccnc(N3Cc4c[nH]nc4C3)n2)n1)c1ccc2[nH]ncc2c1` [Ex. 35, 5-((2′-(2,6-Dihydropyrrolo[3,4-c]pyrazol-5(4H)-yl)-[2,4′-bipyrimidin]-4-yl)ethynyl)-1H-indazole] came in with a Kd greater than 30 µM. In addition, on ROCK2, the “ROCK 2 Selectivity” value is greater than 417 and the Kd is 0.072 µM.

`COCCN1CCN(c2cc3c(cn2)CN(c2nccc(-c4nccc(C#Cc5ccc6[nH]ncc6c5)n4)n2)C3)CC1` [Ex. 36, 5-((2′-(6-(4-(2-Methoxyethyl)piperazin-1-yl)-1,3-dihydro-2H-pyrrolo[3,4-c]pyridin-2-yl)-[2,4′-bipyrimidin]-4-yl)ethynyl)-1H-indazole trifluoroacetate salt]: at ROCK1, binding was characterised by a dissociation constant (Kd) of 0.069 µM. At ROCK2, the “ROCK 2 Selectivity” value was 7.26 and the Kd worked out at 0.0095 µM.

The compound `COCCOc1cc2c(cn1)CN(c1nccc(-c3nccc(C#Cc4ccc5[nH]ncc5c4)n3)n1)C2` [Ex. 37, 5-((2′-(6-(2-Methoxyethoxy)-1,3-dihydro-2H-pyrrolo[3,4-c]pyridin-2-yl)-[2,4′-bipyrimidin]-4-yl)ethynyl)-1H-indazole] came in with a Kd at ROCK1 of 5.7 µM. On ROCK2, the “ROCK 2 Selectivity” value is reported as 51.8 and the Kd amounted to 0.11 µM.

On ROCK1, `CN(C)C(=O)COc1cc2c(cn1)CN(c1nccc(-c3nccc(C#Cc4ccc5[nH]ncc5c4)n3)n1)C2` [Ex. 38, 2-((2-(4-((1H-indazol-5-yl)ethynyl)-[2,4′-bipyrimidin]-2′-yl)-2,3-dihydro-1H-pyrrolo[3,4-c]pyridin-6-yl)oxy)-N,N-dimethylacetamide] registered a Kd of 2.8 µM. For the same compound, on ROCK2, the “ROCK 2 Selectivity” value was 4.37 and the Kd worked out at 0.64 µM.

As to `CN(C)CCOc1ccc2c(c1)CN(c1nccc(-c3nccc(C#Cc4ccc5[nH]ncc5c4)n3)n1)C2` [Ex. 39, 2-((2-(4-((1H-Indazol-5-yl)ethynyl)-[2,4′-bipyrimidin]-2′-yl)isoindolin-5-yl)oxy)-N,N-dimethylethanamine], the dissociation constant (Kd) on ROCK1 amounted to 0.67 µM; at ROCK2, 0.026 µM. Further, at ROCK2, the “ROCK 2 Selectivity” value is recorded as 25.8.

Take `CN1CCN(c2ccc3c(c2)CN(c2nccc(-c4nccc(C#Cc5ccc6[nH]ncc6c5)n4)n2)C3)CC1` [Ex. 40, 5-((2′-(5-(4-Methylpiperazin-1-yl)isoindolin-2-yl)-[2,4′-bipyrimidin]-4-yl)ethynyl)-1H-indazole]: the figures for the Kd on ROCK1 and at ROCK2 were 12 µM and 0.083 µM, respectively. For the same compound, at ROCK2, the “ROCK 2 Selectivity” value is on record as 144.

In turn, `CC1CN(c2ccc3c(c2)CN(c2nccc(-c4nccc(C#Cc5ccc6[nH]ncc6c5)n4)n2)C3)CCO1` (stereo not shown) [Ex. 41, 4-(2-(4-((1H-Indazol-5-yl)ethynyl)-[2,4′-bipyrimidin]-2′-yl)isoindolin-5-yl)-2-methylmorpholine] registered a Kd at ROCK1 of 1.1 µM. For the same compound, on ROCK2, the “ROCK 2 Selectivity” value is 45.8 and the Kd came out at 0.024 µM.

With `C(#Cc1ccnc(-c2ccnc(N3Cc4ccc(OCCN5CCOCC5)cc4C3)n2)n1)c1ccc2[nH]ncc2c1` [Ex. 42, 4-(2-((2-(4-((1H-Indazol-5-yl)ethynyl)-[2,4′-bipyrimidin]-2′-yl)isoindolin-5-yl)oxy)ethyl)morpholine], the Kd on ROCK1 was determined as 0.64 µM; on ROCK2 it was 0.083 µM. Further, the “ROCK 2 Selectivity” value at ROCK2 is listed as 7.71.
